The target in this test is T1, viral kinase pUL-97 (Human cytomegalovirus, UniProt P16788).
T1 construct: The pUL-97 gene was cloned into a baculovirus vector; GST (glutathione S-transferase) (N); made in house; host or cells: Sf9 insect cells, baculovirus
Kind of test: UL97 kinase assay on Immobilon plate. The format is biochemical. The note with it: inhibition of UL 97 kinase activity, read-out: Activity Class [A, B, C]. In outline: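 GST-pUL97 from baculovirus-infected Sf9 cells phosphorylated myelin basic protein with ATP (3 μM in the added assay buffer) and γ-[33P]ATP in Tris-HCl pH 7.5 buffer with MnCl2 and DTT. Reaction ran 1 h at 30 °C with graded compound concentrations and was stopped with EDTA. 33P incorporation was measured by scintillation after filter capture and phosphoric acid washes.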

Where [1] appears, read: class by IC50 / % inhibition at 10 or 100 μM.
Setting [2] is: class by IC50 / % inhibition at 10 μM or 100 μM.

Like-named read-outs stand apart in the source and are kept apart here.

T1 sequence (P16788 whole entry): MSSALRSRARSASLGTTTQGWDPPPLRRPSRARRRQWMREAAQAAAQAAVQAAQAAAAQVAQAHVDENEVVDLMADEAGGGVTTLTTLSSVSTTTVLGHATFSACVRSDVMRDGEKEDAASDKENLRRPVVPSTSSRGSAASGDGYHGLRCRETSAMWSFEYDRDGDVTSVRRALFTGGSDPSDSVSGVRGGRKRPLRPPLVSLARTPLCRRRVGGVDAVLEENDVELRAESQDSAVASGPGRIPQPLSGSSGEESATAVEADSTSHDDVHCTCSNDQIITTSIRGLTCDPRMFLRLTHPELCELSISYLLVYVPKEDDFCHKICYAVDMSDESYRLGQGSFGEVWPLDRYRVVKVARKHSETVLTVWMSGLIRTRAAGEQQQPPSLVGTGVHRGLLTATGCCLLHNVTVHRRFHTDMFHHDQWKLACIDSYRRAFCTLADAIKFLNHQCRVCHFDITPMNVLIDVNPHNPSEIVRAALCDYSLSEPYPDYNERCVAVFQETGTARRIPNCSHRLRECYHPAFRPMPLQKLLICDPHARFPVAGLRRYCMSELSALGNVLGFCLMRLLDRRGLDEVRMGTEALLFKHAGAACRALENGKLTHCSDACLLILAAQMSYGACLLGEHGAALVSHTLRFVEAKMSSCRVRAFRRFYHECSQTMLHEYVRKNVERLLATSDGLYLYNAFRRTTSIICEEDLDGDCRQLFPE

Consider `NCc1ccc(-c2cncc(N3CCN(C(=O)c4ccco4)CC3)n2)cc1` [compound 59, [6′-(4-Aminomethyl-phenyl)-2,3,5,6-tetrahydro-[1,2′]bipyrazinyl-4-yl]-furan-2-yl-methanone], for which, under setting [1], the IC50 was in the range of 10 to 100 µM. With `COc1ccc(-c2cncc(N3CCN(c4ccc(C)cc4)CC3)n2)cc1F` [compound 265, 6′-(3-Fluoro-4-methoxy-phenyl)-4-p-tolyl-3,4,5,6-tetrahydro-2H-[1,2′]bipyrazinyl], the IC50 under setting [2] lay within 10 to 100 µM. For `COc1cccc(N2CCN(c3cncc(-c4ccc(F)cc4)n3)CC2)c1` [compound 367, 6′-(4-Fluoro-phenyl)-4-(3-methoxy-phenyl)-3,4,5,6-tetrahydro-2H-[1,2′]bipyrazinyl], the IC50 under setting [2] is 1 to 10 µM.

Consider `CCOc1ccc(-c2cncc(N3CCN(c4ccncc4)CC3)n2)cc1` [compound 260, 6′-(4-Ethoxy-phenyl)-4-pyridin-4-yl-3,4,5,6-tetrahydro-2H-[1,2′]bipyrazinyl], for which the IC50 under setting [2] lay within 1 to 10 µM. The same measure, in the same setting: then `OCc1ccc(-c2cncc(N3CCN(c4ccccn4)CC3)n2)cc1` [compound 351, [4-(4-Pyridin-2-yl-3,4,5,6-tetrahydro-2H-[1,2′]bipyrazinyl-6′-yl)-phenyl]-methanol], with 1 to 10 µM; and `COc1ccc(-c2cncc(N3CCN(c4ccc(Cl)c(Cl)c4)CC3)n2)cc1OC` [compound 371, 4-(3,4-Dichloro-phenyl)-6′-(3,4-dimethoxy-phenyl)-3,4,5,6-tetrahydro-2H-[1,2′]bipyrazinyl], with 10 to 100 µM. In the case of `COc1cccc(-c2cncc(N3CCN(c4ccccc4F)CC3)n2)c1` [compound 113, 4-(2-Fluoro-phenyl)-6′-(3-methoxy-phenyl)-3,4,5,6-tetrahydro-2H-[1,2′]bipyrazinyl], under setting [1], the IC50 was 1 to 10 µM.

Regarding `CC(=O)c1cccc(-c2cncc(N3CCN(c4ccncc4)CC3)n2)c1` [compound 132, 1-[3-(4-Pyridin-4-yl-3,4,5,6-tetrahydro-2H-[1,2′]bipyrazinyl-6′-yl)-phenyl]-ethanone], the IC50 under setting [1] fell in the range of 1 to 10 µM. `COc1cccc(N2CCN(c3cncc(-c4ccc(C)cc4)n3)CC2)c1` [compound 284, 4-(3-Methoxy-phenyl)-6′-p-tolyl-3,4,5,6-tetrahydro-2H-[1,2′]bipyrazinyl]: the IC50 under setting [2] was 1 to 10 µM. As for `COc1ccc(-c2cncc(N3CCC(c4ccccc4)CC3)n2)cc1OC` [compound 360, 2-(3,4-Dimethoxy-phenyl)-6-(4-Phenyl-piperidin-1-yl)-pyrazine], under setting [2], the IC50 was 1 to 10 µM. As to `CC(=O)c1ccc(N2CCN(c3cncc(-c4cccc(C)c4C)n3)CC2)cc1` [compound 150], the IC50 under setting [1] is 10 to 100 µM. Regarding `Fc1ccccc1N1CCN(c2cncc(-c3cccc4ccccc34)n2)CC1` [compound 249, 4-(2-Fluoro-phenyl)-6′-naphthalen-1-yl-3,4,5,6-tetrahydro-2H-[1,2′]bipyrazinyl], the IC50 under setting [2] was 10 to 100 µM. Take `Fc1ccc(-c2cncc(N3CCN(c4ccccn4)CC3)n2)c(F)c1` [compound 19, 6′-(2,4-Difluoro-phenyl)-4-pyridin-2-yl-3,4,5,6-tetrahydro-2H-[1,2′]bipyrazinyl]: the IC50 under setting [1] was in the range of 10 to 100 µM. For `Fc1ccc(N2CCN(c3cncc(-c4ccc(C(F)(F)F)cc4)n3)CC2)cc1` [compound 180, 4-(4-Fluoro-phenyl)-6′-(4-trifluoromethyl-phenyl)-3,4,5,6-tetrahydro-2H-[1,2′]bipyrazinyl], the IC50 under setting [1] is 1 to 10 µM. Consider `CCOc1ccc(-c2cncc(N3CCN(c4ccccc4OC)CC3)n2)cc1` [compound 92, 6′-(4-Ethoxy-phenyl)-4-(2-methoxy-phenyl)-3,4,5,6-tetrahydro-2H-[1,2′]bipyrazinyl], for which, under setting [1], the IC50 fell in the range of 10 to 100 µM. Consider `Fc1cc(-c2cncc(N3CCN(c4cnccn4)CC3)n2)ccc1-c1ccccc1` [compound 334, 6-(2-Fluoro-biphenyl-4-yl)-2′,3′,5′,6′-tetrahydro-[2,1′;4′,2″]terpyrazine], for which the IC50 under setting [2] was in the range of 10 to 100 µM. As to `COc1ccc(N2CCN(c3cncc(-c4cc5ccccc5o4)n3)CC2)cc1` [compound 282, 6′-Benzofuran-2-yl-4-(4-methoxy-phenyl)-3,4,5,6-tetrahydro-2H-[1,2′]bipyrazinyl], under setting [2], the IC50 fell in the range of 1 to 10 µM. `COc1ccc(-c2cncc(N3CCN(c4cccc(Cl)c4)CC3)n2)cc1OC` [compound 100, 4-(3-Chloro-phenyl)-6′-(3,4-dimethoxy-phenyl)-3,4,5,6-tetrahydro-2H-[1,2′]bipyrazinyl]: the IC50 under setting [1] was 1 to 10 µM. For `OCc1ccc(-c2cncc(N3CCN(c4cccc(Cl)c4)CC3)n2)cc1` [compound 83, {4-[4-(3-Chloro-phenyl)-3,4,5,6-tetrahydro-2H-[1,2′]bipyrazinyl-6′-yl]-phenyl}-methanol], the IC50 under setting [1] is 1 to 10 µM. With `Cc1ccc(N2CCN(c3cncc(-c4ccccc4)n3)CC2)cc1` [compound 135, 6′-Phenyl-4-p-tolyl-3,4,5,6-tetrahydro-2H-[1,2′]bipyrazinyl], under setting [1], the IC50 fell in the range of 10 to 100 µM. `Fc1cccc(-c2cncc(N3CCN(c4ccccc4F)CC3)n2)c1` [compound 198, 4-(2-Fluoro-phenyl)-6′-(3-fluoro-phenyl)-3,4,5,6-tetrahydro-2H-[1,2′]bipyrazinyl]: the IC50 under setting [2] lay in the range of 10 to 100 µM. `c1ccc(Oc2ccc(-c3cncc(N4CCN(c5ccccn5)CC4)n3)cc2)cc1` [compound 341, 6′-(4-Phenoxy-phenyl)-4-pyridin-2-yl-3,4,5,6-tetrahydro-2H-[1,2′]bipyrazinyl]: the IC50 under setting [2] was in the range of 10 to 100 µM.

In the case of `CSc1ccc(-c2cncc(N3CCC(c4ccccc4)CC3)n2)cc1` [compound 361, 2-(4-Methylsulfanyl-phenyl)-6-(4-phenyl-piperidin-1-yl)-pyrazine], the IC50 under setting [2] lay in the range of 1 to 10 µM. For `Fc1ccc(-c2cncc(N3CCN(c4cccc(Cl)c4)CC3)n2)cc1` [compound 99, 4-(3-Chloro-phenyl)-6′-(4-fluoro-phenyl)-3,4,5,6-tetrahydro-2H-[1,2′]bipyrazinyl], the IC50 under setting [1] is 1 to 10 µM. On to `COc1ccc(-c2cncc(N3CCN(c4ccc(C(F)(F)F)cc4)CC3)n2)cc1OC` [compound 310, 6′-(3,4-Dimethoxy-phenyl)-4-(4-trifluoromethyl-phenyl)-3,4,5,6-tetrahydro-2H-[1,2′]bipyrazinyl], for which the IC50 under setting [2] fell in the range of 10 to 100 µM. With `FC(F)(F)c1cccc(N2CCN(c3cncc(-c4cc5ccccc5s4)n3)CC2)c1` [compound 160, 6′-Benzo[b]thiophen-2-yl-4-(3-trifluoromethyl-phenyl)-3,4,5,6-tetrahydro-2H-[1,2′]bipyrazinyl], the IC50 under setting [1] is 1 to 10 µM.

On to `COc1ccc(N2CCN(c3cncc(-c4csc5ccccc45)n3)CC2)cc1` [compound 283, 6′-Benzo[b]thiophen-3-yl-4-(4-methoxy-phenyl)-3,4,5,6-tetrahydro-2H-[1,2′]bipyrazinyl], for which the IC50 under setting [2] lay in the range of 1 to 10 µM. On to `COc1cccc(-c2cncc(N3CCN(c4cccc(Cl)c4)CC3)n2)c1OC` [compound 183, 4-(3-Chloro-phenyl)-6′-(2,3-dimethoxy-phenyl)-3,4,5,6-tetrahydro-2H-[1,2′]bipyrazinyl], for which, under setting [1], the IC50 lay within 10 to 100 µM. On to `COc1ccc(N2CCN(c3cncc(-c4csc5ccccc45)n3)CC2)cc1OC` [compound 227, 6′-Benzo[b]thiophen-3-yl-4-(3,4-dimethoxy-phenyl)-3,4,5,6-tetrahydro-2H-[1,2′]bipyrazinyl], for which the IC50 under setting [2] lay within 1 to 10 µM. As for `Fc1ccc(-c2cncc(N3CCN(c4cccc(C(F)(F)F)c4)CC3)n2)cc1Cl` [compound 157, 6′-(3-Chloro-4-fluoro-phenyl)-4-(3-trifluoromethyl-phenyl)-3,4,5,6-tetrahydro-2H-[1,2′]bipyrazinyl], the IC50 under setting [1] lay within 10 to 100 µM. As for `CC(=O)c1ccc(-c2cncc(N3CCN(c4ccccc4F)CC3)n2)cc1` [compound 130, 1-{4-[4-(2-Fluoro-phenyl)-3,4,5,6-tetrahydro-2H-[1,2′]bipyrazinyl-6′-yl]-phenyl}-ethanone], under setting [1], the IC50 lay in the range of 1 to 10 µM. Consider `CC(=O)c1ccc(N2CCN(c3cncc(-c4ccc(C(C)(C)C)cc4)n3)CC2)cc1` [compound 204, 1-{4-[6′-(4-tert-Butyl-phenyl)-2,3,5,6-tetrahydro-[1,2′]bipyrazinyl-4-yl]-phenyl}-ethanone], for which the IC50 under setting [2] was 10 to 100 µM. As for `Fc1ccc(-c2cncc(N3CCN(c4ccncc4)CC3)n2)c(F)c1` [compound 46, 6′-(2,4-Difluoro-phenyl)-4-pyridin-4-yl-3,4,5,6-tetrahydro-2H-[1,2′]bipyrazinyl], the IC50 under setting [1] is 1 to 10 µM. With `COc1ccccc1N1CCN(c2cncc(-c3ccc(F)c(Cl)c3)n2)CC1` [compound 242, 6′-(3-Chloro-4-fluoro-phenyl)-4-(2-methoxy-phenyl)-3,4,5,6-tetrahydro-2H-[1,2′]bipyrazinyl], under setting [2], the IC50 was 10 to 100 µM. With `CCOc1ccc(-c2cncc(N3CCN(c4ccc(OC)c(OC)c4)CC3)n2)cc1` [compound 45, 4-(3,4-Dimethoxy-phenyl)-6′-(4-ethoxy-phenyl)-3,4,5,6-tetrahydro-2H-[1,2′]bipyrazinyl], under setting [1], the IC50 fell in the range of 1 to 10 µM. For `COc1ccc(OC)c(-c2cncc(N3CCN(c4ccc(F)cc4)CC3)n2)c1` [compound 234, 6′-(2,5-Dimethoxy-phenyl)-4-(4-fluoro-phenyl)-3,4,5,6-tetrahydro-2H-[1,2′]bipyrazinyl], the IC50 under setting [2] lay in the range of 10 to 100 µM. On to `COc1ccc(-c2cncc(N3CCN(c4ccccc4OC)CC3)n2)cc1OC` [compound 107, 6′-(3,4-Dimethoxy-phenyl)-4-(2-methoxy-phenyl)-3,4,5,6-tetrahydro-2H-[1,2′]bipyrazinyl], for which, under setting [1], the IC50 was in the range of 1 to 10 µM.

Take `Clc1ccc(N2CCN(c3cncc(-c4csc5ccccc45)n3)CC2)cc1` [compound 326, 6′-Benzo[b]thiophen-3-yl-4-(4-chloro-phenyl)-3,4,5,6-tetrahydro-2H-[1,2′]bipyrazinyl]: the IC50 under setting [2] was 1 to 10 µM.

The values are drawn from patent publication US20080194574A1, “Pyrazine Derivatives As Effective Compounds Against Infectious Diseases” (AXXIMA PHARMACEUTICALS AG, priority 2003, published 2008).
